The target in one assay is T1, freeze-dried Cry j1 (Cryptomeria japonica, UniProt P18632).
T1 construct: purchased Hayashibara Biochemical Labs., Inc
Kind of assay: ELISA of freeze-dried Cry j1 after exposure to chlorine dioxide gas in 100 L-Tedlar bag. As to conditions: 24 hours. The format is biochemical, Japanese cedar. On the procedure: The purified Cry j1 which had been freeze-dried was reacted with chlorine dioxide gas having an average concentration of 0.08 ppm for 24 hours, and measurement was made using ELISA. As a result, 0.08 ppm of chlorine dioxide gas reduced the antigenicity of Cry j1, as compared with the case of air as a control. […] The details will be described below.
In order to examine effect of the chlorine dioxide gas on the freeze-dried Cry j1, […] of the purified Cry j1 adjusted with PBS to the concentration of 10 μg/ml was placed in a […], frozen at −30° C., and freeze-dried overnight using a suction desiccator.
The humidity was controlled using agar, and the generated chlorine dioxide solution was introduced using a syringe into a 100 L-Tedlar bag, so that the concentration therein becomes 0.1 ppm, and air inside the bag was agitated using a crisscross rotor wherein outer diameter of 60 mm×height of 17 mm. Likewise, a bag into which distilled water was introduced was used as a control. The bag was left in an environment of 24° C., and the chlorine dioxide gas concentration inside the bag was measured using a chlorine dioxide gas measuring instrument (Model 4330-SP, Interscan Corporation; measurement range 0 to 1,000 ppb), and when the value was below 0.1 ppm, the generated chlorine dioxide solution was further added to make adjustment. […]

Another assay has as its target T2, freeze-dried Der fII (Dermatophagoides farinae, UniProt Q00855).
T2 sequence (Q00855 18-146): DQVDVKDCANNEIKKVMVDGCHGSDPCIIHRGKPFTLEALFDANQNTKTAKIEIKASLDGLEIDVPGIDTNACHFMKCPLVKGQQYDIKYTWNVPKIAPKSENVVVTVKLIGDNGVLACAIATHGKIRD
Kind of assay: ELISA of freeze-dried Der fII after exposure to chlorine dioxide gas in 100 L-Tedlar bag. The format is biochemical, mite. Conditions: 24 hours. On the procedure: The purified Der fII which had been freeze-dried was reacted with chlorine dioxide gas having a concentration of 0.1 ppm for 24 hours, and measurement was made using ELISA. As a result, 0.1 ppm of chlorine dioxide gas reduced the antigenicity of Der fII, as compared with the case of air as a control. […] The details will be described below.
In order to examine effect of the chlorine dioxide gas on the freeze-dried Der fII, 10 μl of the purified Der fII adjusted with PBS to the concentration of 10 μg/ml was placed in a 0.2-mL tube, frozen at −30° C., and freeze-dried overnight using a suction desiccator.
The humidity was controlled by a saturated salt method. Inside a Futon bag, a Tupperware containing salt or water therein was placed so as to obtain a target humidity, and next day, inside the bag, a 100 L-Tedlar bag containing the freeze-dried Der fII and a hygrometer was placed. A Tedlar bag into which chlorine dioxide was introduced was light-shielded with aluminum foil. […] The bag was left in an environment of 24° C., and the chlorine dioxide gas concentration inside bag was measured using a chlorine dioxide detector tube (No. 23M having a measurement range of 0.1 to 10 ppm, No. 23L having a measurement range of 0.025 to 1.2 ppm, GASTEC Corporation), and when the value was below 0.1 ppm, the generated chlorine dioxide gas was further added to make adjustment. […]
A general note: ELISA stands for enzyme-linked immunosorbent assay.

Entries after “also recorded” stand apart in the source; their conditions may differ.

T1 sequence (P18632 22-374): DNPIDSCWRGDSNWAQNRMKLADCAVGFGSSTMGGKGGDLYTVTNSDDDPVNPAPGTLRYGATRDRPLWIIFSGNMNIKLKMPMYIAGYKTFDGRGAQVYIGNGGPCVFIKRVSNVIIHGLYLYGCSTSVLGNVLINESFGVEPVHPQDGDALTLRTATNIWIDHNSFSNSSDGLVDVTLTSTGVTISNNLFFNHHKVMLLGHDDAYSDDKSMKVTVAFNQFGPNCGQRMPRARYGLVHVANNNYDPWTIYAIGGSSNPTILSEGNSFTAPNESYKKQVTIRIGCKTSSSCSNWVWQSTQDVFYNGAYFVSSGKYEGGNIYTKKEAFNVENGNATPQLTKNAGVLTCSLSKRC

Take `[O][Cl+][O-]` [chlorine dioxide gas, chlorine dioxide]: at freeze-dried Cry j1 (chlorine dioxide gas 0.1 ppm (average 0.08 ppm), humidity increased), the “antigenicity of freeze-dried Cry j1 at higher relative humidity” value was “further reduced; also recorded: reduced to a larger degree”. The “antigenicity of freeze-dried Cry j1” value on freeze-dried Cry j1 (chlorine dioxide gas 0.1 ppm set, 0.08 ppm (80 ppb) on average, 24° C., compared with air control) is “remarkably reduced”. In addition, the “antigenicity of freeze-dried Der fII” value at freeze-dried Der fII (chlorine dioxide gas 0.1 ppm (0.09 ppm on average), 24° C., compared with air control) is “remarkably reduced”. Further, the “antigenicity of freeze-dried Der fII at higher relative humidity” value at freeze-dried Der fII (chlorine dioxide gas 0.1 ppm, humidity increased) is recorded as “reduced to a larger degree; also recorded: further reduced”.

The values are drawn from patent US8623392B2, “Allergen inactivating agent” (priority 2007, dated 2014).
